What was measured:
JAK1 = JAK1 (Homo sapiens (Human), UniProt P23458); test: Biochemical JAK1 kinase assay (LanthaScreen)
Summary of the method: (§1)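 GST-JAK + GFP-STAT1 peptide, HEPES pH 7.5/MgCl2/EGTA/Brij-35 buffer; cpd preincubation 1 h RT; ATP start, 1 h RT; stop with 10 mM EDTA + 2 nM Tb-anti-pSTAT1; TR-FRET 520/495. 4-parameter IC50 → pKi (Cheng-Prusoff).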

JAK3 = JAK3 (Homo sapiens (Human), UniProt P52333); test: Biochemical JAK3 kinase assay (LanthaScreen)
Summary of the method: as §1

[1] = tested on: IL-2 stimulated STAT5 phosphorylation in Tall-1 human T cell line (JAK3); test: Cellular JAK3 potency assay: inhibition of IL-2 stimulated pSTAT5 in Tall-1 T cells; type: cell-based
Summary of the method: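 AlphaLISA SureFire Ultra measures STAT5 Tyr694/699 phosphorylation in lysed Tall-1 human T cells. Cells were exposed to compound for 1 h at 37 °C before a 30 min IL-2 challenge (300 ng/ml final). Values are pIC50 means with standard deviation from signal-versus-concentration curves.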

Caco-2 cell monolayers = test: Caco-2 permeation assay; type: in vitro ADME; details: 5 μM, A-B direction, with Verapamil (25 μM)
Description: Assay 4: Caco-2 Permeation Assay
The Caco-2 permeation assay was performed to model the ability of test compounds to pass through the intestine and get into the blood stream after oral administration. The rate at which test compounds in solution permeate a cell monolayer designed to mimic the tight junction of human small intestinal monolayers was determined.
CacoReady 24-well transwell plates were obtained from ADMEcell (Alameda, Calif.). The compounds were evaluated at a concentration of 5 μM from 10 mM DMSO stock solutions in duplicate (n=2). The passive permeability of the compounds tested was evaluated using Caco-2 cell monolayers along with Verapamil (25 μM) to inhibit P-gp transport proteins in the apical to basolateral (A-B) direction. The experiment was conducted in a 37° C., 5% CO2 incubator. Caco-2 culture media consisted of standard filtered DMEM, FCS 10%, L-Glutamine 1% and PenStrep 1%. Basal assay plate was prepared by adding 750 μL of transport buffer to A-B wells. A CacoReady™ plate was prepared by removing the Caco-2 media from the apical wells and replacing with fresh transport media (200 μL repeated for a total of 3 washes). Blank media (200 μL) was then replaced with diluted compound for A-B wells. To begin the incubation, the basal plate was removed from the incubator and the apical section was added on top of it. Samples (40 μL) were collected from the apical and basal compartments for time zero (t0). Samples were collected again after 120 minutes (t120) from the apical and basal compartments. All samples were diluted and prepared for bioanalysis by LC-MS/MS. The permeation coefficient (Kp, mean A to B+ Verapamil Papparent) in cm/sec was calculated as dQ (flux)/(dt×Area×concentration).
In this assay, a Kp value less than about 5×10^−6 cm/sec is considered favorable to minimize systemic exposure and target the colon. A Kp value less than about 10×10^−6 cm/sec may also be sufficient to minimize systemic exposure and target the colon.

JAK2 = JAK2 (Homo sapiens (Human), UniProt O60674); test: Biochemical JAK2 kinase assay (LanthaScreen)
Summary of the method: as §1

Tyk2 = Tyk2 (Homo sapiens (Human), UniProt P29597); test: Biochemical Tyk2 kinase assay (LanthaScreen)
Summary of the method: as §1

[2] = selectivity JAK3 over JAK1, difference of pKi
[3] = IL-2 stimulated pSTAT5, Tall-1 T cells
[4] = selectivity, difference of pKi values
[5] = IL-2 stimulated pSTAT5 in Tall-1 T cells

JAK3, sequence (P52333 whole entry): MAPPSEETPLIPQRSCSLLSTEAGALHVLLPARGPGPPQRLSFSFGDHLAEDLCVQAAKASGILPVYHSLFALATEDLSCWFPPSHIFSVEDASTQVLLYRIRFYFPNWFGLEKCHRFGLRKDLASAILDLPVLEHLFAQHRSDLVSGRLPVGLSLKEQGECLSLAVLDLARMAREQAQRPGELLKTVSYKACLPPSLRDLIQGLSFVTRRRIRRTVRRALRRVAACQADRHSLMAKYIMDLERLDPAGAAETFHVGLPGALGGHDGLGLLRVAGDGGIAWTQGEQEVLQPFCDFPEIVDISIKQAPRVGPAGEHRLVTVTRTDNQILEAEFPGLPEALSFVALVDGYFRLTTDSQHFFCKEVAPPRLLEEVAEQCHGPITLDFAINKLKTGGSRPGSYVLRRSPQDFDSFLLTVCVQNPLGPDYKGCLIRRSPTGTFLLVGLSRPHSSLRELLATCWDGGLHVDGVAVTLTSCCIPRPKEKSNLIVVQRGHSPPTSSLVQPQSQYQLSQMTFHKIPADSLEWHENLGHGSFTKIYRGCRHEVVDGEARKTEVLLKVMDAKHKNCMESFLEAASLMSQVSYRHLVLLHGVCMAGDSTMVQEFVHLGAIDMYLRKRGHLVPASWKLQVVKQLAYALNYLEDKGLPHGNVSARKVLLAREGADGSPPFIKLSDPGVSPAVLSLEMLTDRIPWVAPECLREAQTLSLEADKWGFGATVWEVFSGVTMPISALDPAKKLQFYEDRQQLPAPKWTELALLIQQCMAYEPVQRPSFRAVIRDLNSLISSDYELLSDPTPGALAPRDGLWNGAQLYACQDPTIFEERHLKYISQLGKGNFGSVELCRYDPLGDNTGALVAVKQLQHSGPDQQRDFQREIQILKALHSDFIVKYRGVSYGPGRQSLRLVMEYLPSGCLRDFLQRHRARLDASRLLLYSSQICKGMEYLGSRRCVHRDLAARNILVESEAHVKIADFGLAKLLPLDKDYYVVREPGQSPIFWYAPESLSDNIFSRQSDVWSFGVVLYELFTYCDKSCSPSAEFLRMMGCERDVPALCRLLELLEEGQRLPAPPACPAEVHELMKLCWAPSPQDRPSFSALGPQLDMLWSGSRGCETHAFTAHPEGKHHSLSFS
Tyk2, sequence (P29597 whole entry): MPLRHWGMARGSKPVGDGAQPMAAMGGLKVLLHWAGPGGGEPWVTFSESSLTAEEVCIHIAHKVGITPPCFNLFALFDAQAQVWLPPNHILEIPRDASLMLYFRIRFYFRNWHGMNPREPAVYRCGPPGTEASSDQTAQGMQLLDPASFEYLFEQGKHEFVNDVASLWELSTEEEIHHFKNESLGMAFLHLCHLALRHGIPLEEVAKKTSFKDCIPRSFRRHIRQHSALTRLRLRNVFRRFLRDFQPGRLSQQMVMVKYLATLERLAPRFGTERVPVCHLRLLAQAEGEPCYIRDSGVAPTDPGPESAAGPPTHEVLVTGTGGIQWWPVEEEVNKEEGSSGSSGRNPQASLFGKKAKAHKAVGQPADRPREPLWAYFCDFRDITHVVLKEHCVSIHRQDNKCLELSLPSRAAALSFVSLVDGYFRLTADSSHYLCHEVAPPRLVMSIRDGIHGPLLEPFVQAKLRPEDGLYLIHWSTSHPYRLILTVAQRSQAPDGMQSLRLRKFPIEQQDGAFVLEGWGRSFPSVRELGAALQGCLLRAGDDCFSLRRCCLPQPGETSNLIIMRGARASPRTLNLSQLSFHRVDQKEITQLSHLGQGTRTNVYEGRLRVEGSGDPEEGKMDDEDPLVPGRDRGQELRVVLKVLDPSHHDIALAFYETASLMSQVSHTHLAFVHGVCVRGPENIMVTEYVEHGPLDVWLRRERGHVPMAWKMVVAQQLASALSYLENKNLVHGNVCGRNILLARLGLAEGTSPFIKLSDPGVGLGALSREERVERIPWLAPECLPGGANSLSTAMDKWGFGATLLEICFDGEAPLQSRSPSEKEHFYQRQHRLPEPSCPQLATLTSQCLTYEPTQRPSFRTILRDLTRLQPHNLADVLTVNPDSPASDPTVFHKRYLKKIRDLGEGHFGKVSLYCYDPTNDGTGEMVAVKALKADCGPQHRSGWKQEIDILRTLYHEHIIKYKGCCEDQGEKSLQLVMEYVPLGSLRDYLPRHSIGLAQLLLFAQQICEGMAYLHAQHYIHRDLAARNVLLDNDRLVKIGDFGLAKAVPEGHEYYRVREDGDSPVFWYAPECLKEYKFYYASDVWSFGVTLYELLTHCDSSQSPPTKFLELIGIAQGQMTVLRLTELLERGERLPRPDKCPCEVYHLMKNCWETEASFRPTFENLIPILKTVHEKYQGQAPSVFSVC
JAK1, sequence (P23458 whole entry): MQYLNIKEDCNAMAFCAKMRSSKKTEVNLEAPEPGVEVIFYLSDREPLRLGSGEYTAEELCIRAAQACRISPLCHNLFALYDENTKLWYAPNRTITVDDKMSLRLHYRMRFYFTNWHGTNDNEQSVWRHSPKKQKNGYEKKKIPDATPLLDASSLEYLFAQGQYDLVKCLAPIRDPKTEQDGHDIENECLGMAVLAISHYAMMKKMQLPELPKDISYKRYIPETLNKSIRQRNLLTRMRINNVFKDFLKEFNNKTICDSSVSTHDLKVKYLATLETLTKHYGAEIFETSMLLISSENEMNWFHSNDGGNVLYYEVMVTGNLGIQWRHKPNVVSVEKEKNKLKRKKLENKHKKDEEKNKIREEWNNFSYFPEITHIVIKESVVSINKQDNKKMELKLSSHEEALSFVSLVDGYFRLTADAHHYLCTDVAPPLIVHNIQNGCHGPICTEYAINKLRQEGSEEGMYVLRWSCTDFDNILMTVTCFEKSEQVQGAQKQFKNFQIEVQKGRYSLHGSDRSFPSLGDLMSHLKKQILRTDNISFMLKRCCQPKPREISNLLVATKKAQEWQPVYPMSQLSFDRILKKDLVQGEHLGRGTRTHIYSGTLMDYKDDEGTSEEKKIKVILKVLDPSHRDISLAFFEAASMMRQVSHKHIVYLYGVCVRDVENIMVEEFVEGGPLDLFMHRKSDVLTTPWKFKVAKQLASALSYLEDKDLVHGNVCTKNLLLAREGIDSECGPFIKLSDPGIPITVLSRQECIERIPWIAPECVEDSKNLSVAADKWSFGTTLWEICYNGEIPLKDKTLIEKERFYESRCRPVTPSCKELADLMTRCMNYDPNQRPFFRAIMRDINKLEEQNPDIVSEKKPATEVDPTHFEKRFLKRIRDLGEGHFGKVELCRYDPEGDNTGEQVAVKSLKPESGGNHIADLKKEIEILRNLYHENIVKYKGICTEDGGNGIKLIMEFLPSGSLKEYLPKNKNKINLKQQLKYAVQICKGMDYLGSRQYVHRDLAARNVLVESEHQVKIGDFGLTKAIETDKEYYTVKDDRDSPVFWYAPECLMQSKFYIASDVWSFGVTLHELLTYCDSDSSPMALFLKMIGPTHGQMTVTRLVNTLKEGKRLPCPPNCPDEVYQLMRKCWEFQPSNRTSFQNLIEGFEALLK
JAK2, sequence (O60674 whole entry): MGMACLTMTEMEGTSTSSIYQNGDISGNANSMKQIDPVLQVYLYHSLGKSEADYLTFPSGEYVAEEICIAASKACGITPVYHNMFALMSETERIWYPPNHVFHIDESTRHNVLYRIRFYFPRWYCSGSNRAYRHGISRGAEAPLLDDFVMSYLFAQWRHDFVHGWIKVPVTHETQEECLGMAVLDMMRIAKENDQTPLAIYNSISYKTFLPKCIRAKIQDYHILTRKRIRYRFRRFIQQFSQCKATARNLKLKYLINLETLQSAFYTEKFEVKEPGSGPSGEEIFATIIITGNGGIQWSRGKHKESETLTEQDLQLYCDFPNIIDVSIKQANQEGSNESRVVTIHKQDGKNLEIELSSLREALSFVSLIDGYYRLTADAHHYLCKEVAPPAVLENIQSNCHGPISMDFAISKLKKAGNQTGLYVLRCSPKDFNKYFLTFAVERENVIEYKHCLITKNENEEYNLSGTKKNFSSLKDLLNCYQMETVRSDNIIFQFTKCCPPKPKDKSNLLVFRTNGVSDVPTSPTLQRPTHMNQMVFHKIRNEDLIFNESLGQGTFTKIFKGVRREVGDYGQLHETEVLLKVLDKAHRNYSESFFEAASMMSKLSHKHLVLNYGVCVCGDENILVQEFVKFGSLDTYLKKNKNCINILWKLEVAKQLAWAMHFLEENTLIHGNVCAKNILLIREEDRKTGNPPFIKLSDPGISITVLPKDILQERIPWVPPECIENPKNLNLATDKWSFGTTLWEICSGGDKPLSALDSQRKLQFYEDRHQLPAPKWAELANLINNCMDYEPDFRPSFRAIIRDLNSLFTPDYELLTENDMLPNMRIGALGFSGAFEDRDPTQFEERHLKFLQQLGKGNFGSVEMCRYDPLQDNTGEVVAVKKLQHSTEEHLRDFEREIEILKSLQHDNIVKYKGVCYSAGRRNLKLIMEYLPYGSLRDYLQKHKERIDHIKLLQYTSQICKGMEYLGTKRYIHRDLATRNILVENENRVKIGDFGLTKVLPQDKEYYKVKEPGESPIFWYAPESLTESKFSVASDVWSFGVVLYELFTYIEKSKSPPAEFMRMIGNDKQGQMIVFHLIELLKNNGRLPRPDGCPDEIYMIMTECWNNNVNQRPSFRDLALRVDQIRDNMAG

| Compound | JAK 1 (pKi) (JAK1) | JAK 3 (pKi) (JAK3) | JAK3 (pKi)-JAK1 (pKi) (JAK3; [2]) | Tall-1 (pIC50) [1, 3] | Caco Kp (Caco-2 cell monolayers) | JAK 2 (pKi) (JAK2) | JAK3 (pKi)-JAK1 (pKi) (JAK3; [4]) | Tyk 2 (pKi) (Tyk2) | Tall-1 (pIC50) [1, 5] |
| --- | --- | --- | --- | --- | --- | --- | --- | --- | --- |
| C=CC(=O)N1CC(CCn2c(=O)ccc3cnc(Nc4cnn(CC(F)F)c4)nc32)C1 [Example 20] | E (E represents a pKi value of 7 or below (Ki of 100 nM or above)) | B (B represents pKi value between 9 and 10 (Ki between 1 nM and 0.1 nM)) | A (A represents a value of 3 or above) | C (C represents a pIC50 value between 6 and 6.7 (IC50 between 1 μM and 200 nM)) | B (B represents a value between 5×10^−6 and 10×10^−6 cm/sec) |  |  |  |  |
| C=CC(=O)N1CC(CCn2c(=O)ccc3cnc(Nc4cccc(N5CCOCC5)c4)nc32)C1 [Example 28] | E (E represents a pKi value of 7 or below (Ki of 100 nM or above)) | B (B represents pKi value between 9 and 10 (Ki between 1 nM and 0.1 nM)) | A (A represents a value of 3 or above) | C (C represents a pIC50 value between 6 and 6.7 (IC50 between 1 μM and 200 nM)) | C (C represents a value between 10×10^−6 and 30×10^−6 cm/sec) |  |  |  |  |
| C=CC(=O)N1CC(CCn2c(=O)ccc3cnc(Nc4cnn(CCO)c4)nc32)C1 [Example 35] | E (E represents a pKi value of 7 or below (Ki of 100 nM or above)) | B (B represents pKi value between 9 and 10 (Ki between 1 nM and 0.1 nM)) | A (A represents a value of 3 or above) | C (C represents a pIC50 value between 6 and 6.7 (IC50 between 1 μM and 200 nM)) | A (A represents a value below 5×10^−6 cm/sec) |  |  |  |  |
| C=CC(=O)N1CC(CCn2c(=O)ccc3cnc(Nc4cnn(C(F)F)c4)nc32)C1 [Example 36] | E (E represents a pKi value of 7 or below (Ki of 100 nM or above)) | B (B represents pKi value between 9 and 10 (Ki between 1 nM and 0.1 nM)) | A (A represents a value of 3 or above) | C (C represents a pIC50 value between 6 and 6.7 (IC50 between 1 μM and 200 nM)) | C (C represents a value between 10×10^−6 and 30×10^−6 cm/sec) |  |  |  |  |
| C=CC(=O)N1CC(CCn2c(=O)ccc3cnc(Nc4ccc(N5CCOCC5=O)cc4)nc32)C1 [Example 47] | E (E represents a pKi value of 7 or below (Ki of 100 nM or above)) | B (B represents pKi value between 9 and 10 (Ki between 1 nM and 0.1 nM)) | A (A represents a value of 3 or above) | C (C represents a pIC50 value between 6 and 6.7 (IC50 between 1 μM and 200 nM)) | A (A represents a value below 5×10^−6 cm/sec) |  |  |  |  |
| C=CC(=O)N1CC(CCn2c(=O)ccc3cnc(Nc4ccc(N5CCSCC5)nc4)nc32)C1 [Example 54] | E (E represents a pKi value of 7 or below (Ki of 100 nM or above)) | B (B represents pKi value between 9 and 10 (Ki between 1 nM and 0.1 nM)) | A (A represents a value of 3 or above) | C (C represents a pIC50 value between 6 and 6.7 (IC50 between 1 μM and 200 nM)) | C (C represents a value between 10×10^−6 and 30×10^−6 cm/sec) |  |  |  |  |
| C=CC(=O)N1CC(CCn2c(=O)ccc3cnc(Nc4ccc(C5CCN(C)CC5)cc4)nc32)C1 [Example 77] | E (E represents a pKi value of 7 or below (Ki of 100 nM or above)) | B (B represents pKi value between 9 and 10 (Ki between 1 nM and 0.1 nM)) | A (A represents a value of 3 or above) | B (B represents a pC50 value between 6.7 (included) and 7.5 (IC50 between 200 nM and 32 nM)) | A (A represents a value below 5×10^−6 cm/sec) |  |  |  |  |
| C=CC(=O)N1CC(CCn2c(=O)ccc3cnc(Nc4cnn(C5CCOCC5)c4)nc32)C1 [Example 81] | E (E represents a pKi value of 7 or below (Ki of 100 nM or above)) | B (B represents pKi value between 9 and 10 (Ki between 1 nM and 0.1 nM)) | A (A represents a value of 3 or above) | B (B represents a pC50 value between 6.7 (included) and 7.5 (IC50 between 200 nM and 32 nM)) | A (A represents a value below 5×10^−6 cm/sec) |  |  |  |  |
| C=CC(=O)N1CCN(CCn2c(=O)ccc3cnc(Nc4ccc(N5C[C@@H](C)N(C)[C@@H](C)C5)cc4)nc32)[C@@H](C)C1 [Example 249] | E (E represents a pKi value of 7 or below (Ki of 100 nM or above)) | B (B represents pKi value between 9 and 10 (Ki between 1 nM and 0.1 nM)) |  |  |  | E (E represents a pKi value of 7 or below (Ki of 100 nM or above)) | A (A represents a value of 3 or above) | E (E represents a pKi value of 7 or below (Ki of 100 nM or above)) | A (A represents a pIC50 value≥7.5 (IC50≤32 nM)) |
| C=CC(=O)N1CCN(CCn2c(=O)ccc3cnc(Nc4cnn(C5CCOCC5)c4)nc32)[C@@H](C)C1 [Example 250] | E (E represents a pKi value of 7 or below (Ki of 100 nM or above)) | B (B represents pKi value between 9 and 10 (Ki between 1 nM and 0.1 nM)) |  |  |  | E (E represents a pKi value of 7 or below (Ki of 100 nM or above)) | A (A represents a value of 3 or above) | E (E represents a pKi value of 7 or below (Ki of 100 nM or above)) | B (B represents a pC50 value between 6.7 (included) and 7.5 (IC50 between 200 nM and 32 nM)) |
| C=CC(=O)N1CCN(CCn2c(=O)ccc3cnc(Nc4ccc(N5CCN(C)[C@@H](C)C5)cc4)nc32)[C@@H](C)C1 [Example 251] | E (E represents a pKi value of 7 or below (Ki of 100 nM or above)) | B (B represents pKi value between 9 and 10 (Ki between 1 nM and 0.1 nM)) |  |  |  | E (E represents a pKi value of 7 or below (Ki of 100 nM or above)) | A (A represents a value of 3 or above) | E (E represents a pKi value of 7 or below (Ki of 100 nM or above)) | B (B represents a pC50 value between 6.7 (included) and 7.5 (IC50 between 200 nM and 32 nM)) |
| C=CC(=O)N1CCN(CCn2c(=O)ccc3cnc(Nc4ccc(N5CCN(C)[C@@H](C)C5)nc4)nc32)[C@@H](C)C1 [Example 252] | E (E represents a pKi value of 7 or below (Ki of 100 nM or above)) | B (B represents pKi value between 9 and 10 (Ki between 1 nM and 0.1 nM)) |  |  |  | E (E represents a pKi value of 7 or below (Ki of 100 nM or above)) | A (A represents a value of 3 or above) | E (E represents a pKi value of 7 or below (Ki of 100 nM or above)) | B (B represents a pC50 value between 6.7 (included) and 7.5 (IC50 between 200 nM and 32 nM)) |
